The test system of this assay is Erysiphe graminis f. sp. Tritici. Briefly: Erysiphe test (wheat)/curative. The class given is in vivo, Erysiphe graminis f. sp. Tritici on wheat. The following applies: curative, sprayed 48 hours after inoculation, application rate 50 g/ha of each active compound, evaluation 8 days after inoculation, 0% = control, 100% = no infection. Here is the method:
The efficacy here is determined in %. 0% denotes an efficacy which corresponds to that of the control, while an efficacy of 100% means that no infection is observed.
To produce a suitable preparation of active compound, 1 part by weight of active compound or active compound combination is mixed with the stated amounts of solvent and emulsifier, and the concentrate is diluted with water to the desired concentration.
To test for curative activity, young plants are dusted with spores of Erysiphe graminis f. sp. Tritici. 48 hours after the inoculation, the plants are sprayed with the preparation of active compound at the stated application rate.
The plants are placed in a greenhouse at a temperature of about 20° C. and a relative atmospheric humidity of about 80% to promote the development of mildew pustules.
Evaluation is carried out 8 days after the inoculation. 0% means an efficacy which corresponds to that of the control, whereas an efficacy of 100% means that no infection is observed.
As to `CC(C)(C)C(O)(CCc1ccc(Cl)cc1)Cn1cncn1` (stereo not drawn) [(III) tebucinazole, tebucinazole], the “Efficacy in % found (activity found)” value was found to be 22%. Regarding `CON=C(C1=NOCCO1)c1ccccc1Oc1ncnc(Oc2ccccc2Cl)c1F` [(I) fluoxastrobin, 3-[1-[2-(4-<2-chlorophenoxy>-5-fluoropyrimid-6-yloxy)phenyl]-1-(methoximino)methyl]-5,6-dihydro-1,4,2-dioxazine], the “Efficacy in % found (activity found)” value was determined as 11%.

Consider `OC(Cc1ccccc1Cl)(Cn1nc[nH]c1=S)C1(Cl)CC1` (stereo not drawn) [(II) prothioconazole, prothioconazole], for which the “Efficacy in % found (activity found)” value is on record as 0%.

The record behind these values is US20070037799A1, “Fungicide ternary active ingredient combinations” (Bayer Cropscience Aktiengesellschaft, priority 2003, published 2007).
